# According to patent publication US20250296940A1, “ANNULATED 2-AMINO-3-CYANO THIOPHENES AND DERIVATIVES FOR THE TREATMENT OF CANCER” (Boehringer Ingelheim Int'l GmbH Corp., priority 2021, published 2025):
# Molecular target: T1, protein-protein interaction between SOS1 and KRAS G12C (Homo sapiens, UniProt P01116, C118S/C51S/C80L/G12C)
# T1 construct: His6 (N); SOS1: in-house or Viva Biotech Ltd; host or cells: E. coli (KRAS)
# Assay: KRAS::SOS1 AlphaScreen Binding Assay
# Settings: Table 19, intermediates C-3/C-4; 7.5 nM KRAS G12C, 10 μM GDP, 5 nM GST-SOS1; read-out: IC50 G12C::SOS 1
# From the text: This assay can be used to examine the potency with which compounds according to the invention binding to KRAS G12C inhibit the protein-protein interaction between SOS1 and KRAS G12C. […] Low IC50 values in this assay setting are indicative of strong inhibition of protein-protein interaction between SOS1 and KRAS:
# • GST-tagged SOS1 (564_1049_GST_TEV_ECO) produced in-house • GST-TEV-SOS1 (564-1049) is purchased from Viva Biotech Ltd. • The expression construct of KRAS G12C (amino acids 1-169 of reference sequence P01116-2 (uniprot), with additional mutations: C51S, C80L, and C118S) containing a C-terminal avi-tag was obtained by gene synthesis (GeneArt, Thermo Fisher) in donor vector (pDONR-221) and transferred by recombinant cloning into pDEST17 vector bearing an N-terminal His6-tag. The protein was expressed in E. coli and the purified protein was biotinylated with the E. coli biotin ligase (BirA) before usage. • GDP (Sigma Cat No G7127) • AlphaLISA Glutathione Acceptor Beads (PerkinElmer, Cat No AL109) • AlphaScreen Streptavidin Donor Beads (PerkinElmer Cat No 6760002) • Assay plates: Proxiplate-384 PLUS, white (PerkinElmer, Cat No 6008289)
# 7.5 nM (final assay concentration) KRAS G12C, 10 μM (final assay concentration) GDP and 5 nM (final assay concentration) GST-SOS1 are mixed in assay buffer prior to use and kept at room temperature.
# AlphaLISA Glutathione Acceptor Beads and AlphaScreen Streptavidin Donor Beads are mixed in assay buffer at a concentration of 10 μg/mL (final assay concentration) each prior to use and kept at room temperature.
# Compounds are diluted to a final start concentration of 100 μM and are tested in duplicate. Assay-ready plates (ARPs) are generated using an Access Labcyte Workstation with a Labcyte Echo 550 or 555 acoustic dispenser. For compound a start concentration of 100 μM, 150 nL of compound solution is transferred per well in 11 concentrations in duplicate with serial 1:5 dilutions.
# The assay is run using a fully automated robotic system in a darkened room below 100 Lux. 10 μL of KRAS::SOS1 GDP mix is added into columns 1-24 to the 150 nL of compound solution (final dilution in the assay 1:100, final DMSO concentration 1%).
# After 30 minutes incubation time 5 μL of bead mix is added into columns 1-23. Plates are kept at room temperature in a darkened incubator. After further 60 minutes incubation, the signal is measured using a PerkinElmer Envision HTS Multilabel Reader using the AlphaScreen specifications from PerkinElmer. Each plate contains the following controls: • diluted DMSO+KRAS::SOS1 GDP mix+bead mix • diluted DMSO+KRAS::SOS1 GDP mix
# IC50 values are calculated and analyzed using a 4 parametric logistic model.
# Tables of example compounds disclosed herein contain IC50 values determined using the above assay.
# T1 sequence (P01116 1-169 isoform P01116-2 G12C/C51S/C80L/C118S): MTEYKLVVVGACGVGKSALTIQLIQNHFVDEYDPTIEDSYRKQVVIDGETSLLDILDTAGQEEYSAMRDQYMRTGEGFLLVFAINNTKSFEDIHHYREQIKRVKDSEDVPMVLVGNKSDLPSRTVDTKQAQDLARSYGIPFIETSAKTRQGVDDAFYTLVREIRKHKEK
row,Structure (SMILES),IC50
1,C[C@H](Oc1cc(N2C[C@H](C)N[C@@H](C)C2)nc(-c2onc3c2CCC[C@@]32CCCc3sc(N)c(C#N)c32)n1)[C@@H]1CCCN1C [C-3a],4.6 nM
2,C[C@H](Oc1cc(N2CCNC3(CC3)C2)nc(-c2onc3c2CCC[C@@]32CCCc3sc(N)c(C#N)c32)n1)[C@@H]1CCCN1C [C-3b],2.5 nM
3,C[C@H](Oc1cc(N2C[C@H](C)NC3(CC3)C2)nc(-c2onc3c2CCC[C@@]32CCCc3sc(N)c(C#N)c32)n1)[C@@H]1CCCN1C [C-3d],4.1 nM
4,C[C@H](Oc1nc(-c2onc3c2CCC[C@@]32CCCc3sc(N)c(C#N)c32)cc(N2CCNC3(CC3)C2)n1)[C@@H]1CCCN1C [C-3e],45 nM
5,C[C@H](Oc1cc(N2C[C@H](C)N[C@@H](C)C2)nc(-c2noc3c2CCC[C@@]32CCCc3sc(N)c(C#N)c32)n1)[C@@H]1CCCN1C [C-4a],2.4 nM
6,C[C@H](Oc1cc(N2CCNC3(CC3)C2)nc(-c2noc3c2CCC[C@@]32CCCc3sc(N)c(C#N)c32)n1)[C@@H]1CCCN1C [C-4b],1.9 nM
7,C[C@H](Oc1nc(-c2noc3c2CCC[C@@]32CCCc3sc(N)c(C#N)c32)cc(N2C[C@H](C)N[C@@H](C)C2)n1)[C@@H]1CCCN1C [C-4c],37 nM
8,C[C@H](Oc1cc(N2CCNCC2)nc(-c2noc3c2CCC[C@@]32CCCc3sc(N)c(C#N)c32)n1)[C@@H]1CCCN1C [C-4d],3.2 nM
9,CNC1CCN(c2cc(O[C@@H](C)[C@@H]3CCCN3C)nc(-c3noc4c3CCC[C@@]43CCCc4sc(N)c(C#N)c43)n2)CC1 [C-4e],9 nM
